# Active and inactive are the calls of the source. The calls are words filed in the database; no cut-off is given here.
# Assays:
# [1] = molecular target: Cannabinoid receptor 1 (Homo sapiens) (UniProt P21554); test: Antagonist activity at CB1 receptor expressed in NG108-15 cells assessed as abrogation of 2-archidonoylglycerol-induced increase in intracellular free calcium levels; assay type: functional, cell-based
# Cannabinoid receptor 2 [2] = molecular target: T1, Cannabinoid receptor 2 (Homo sapiens, UniProt P34972); test: Antagonist activity at CB2 receptor expressed in HL60 cells assessed as abrogation of 2-archidonoylglycerol-induced increase in intracellular free calcium levels; assay type: functional, cell-based; settings: HL-60
# Cannabinoid receptor 2 [3] = molecular target: T1, Cannabinoid receptor 2; test: Agonist activity at CB2 receptor expressed in HL60 cells assessed as increase in intracellular free calcium concentrations; assay type: functional, cell-based, HL-60
# T1 sequence (P34972 whole entry): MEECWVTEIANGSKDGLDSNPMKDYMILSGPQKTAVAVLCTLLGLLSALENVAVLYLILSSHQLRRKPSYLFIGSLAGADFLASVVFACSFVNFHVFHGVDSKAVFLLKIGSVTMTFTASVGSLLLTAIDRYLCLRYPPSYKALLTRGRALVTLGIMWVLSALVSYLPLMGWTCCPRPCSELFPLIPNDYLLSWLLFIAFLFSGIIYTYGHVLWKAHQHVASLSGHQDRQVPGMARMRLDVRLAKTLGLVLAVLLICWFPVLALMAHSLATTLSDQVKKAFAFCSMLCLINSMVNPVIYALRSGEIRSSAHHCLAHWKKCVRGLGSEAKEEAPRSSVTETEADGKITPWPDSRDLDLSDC
# Sequence of Cannabinoid receptor 1 (Homo sapiens) (P21554 whole entry): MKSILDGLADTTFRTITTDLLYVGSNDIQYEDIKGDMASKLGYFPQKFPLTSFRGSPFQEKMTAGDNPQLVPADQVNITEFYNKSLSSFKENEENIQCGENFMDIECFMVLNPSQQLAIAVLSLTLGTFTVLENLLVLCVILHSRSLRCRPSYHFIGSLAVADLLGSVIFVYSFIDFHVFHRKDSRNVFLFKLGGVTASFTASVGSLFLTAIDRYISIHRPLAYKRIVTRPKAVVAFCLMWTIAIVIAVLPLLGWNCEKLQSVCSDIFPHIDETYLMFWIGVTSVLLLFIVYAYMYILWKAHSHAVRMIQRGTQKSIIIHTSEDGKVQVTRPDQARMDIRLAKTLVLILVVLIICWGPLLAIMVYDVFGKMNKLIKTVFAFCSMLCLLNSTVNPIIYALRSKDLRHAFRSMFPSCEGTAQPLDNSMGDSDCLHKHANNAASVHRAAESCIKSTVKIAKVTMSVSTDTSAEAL
smiles,measurement,setting,value
CCCCC/C=C\C/C=C\C/C=C\C/C=C\CCCC(=O)OC(CO)CO [2-ARACHIDONOYLGLYCEROL],Activity,[1],Active
same,Activity,Cannabinoid receptor 2 [2],Active
same,EC50,Cannabinoid receptor 2 [3],17 nM
